“Also recorded” adds a separate entry of the source.

Test [1] deals with TT MTC xenografts. Kind of test: Chemotherapy of TT MTC xenografts in nude mice. It counts as in vivo, human. Particulars: for growth inhibition of TT xenografts, drug given individually: doses of FIG. 3; for Mean survival time: untreated control 4 weeks. For orientation: Xenograft models place foreign cells or tissue in a host animal.
Test [2] deals with TT tumors. Kind of test: Naked anti-CEA MAb alone on growth of TT tumors in nude mice. Particulars: for tumors less than 0.5 cm^3: at day-37, 0.5 mg/mouse weekly x4, untreated 40%.
Test [3] deals with GW-39 human colorectal tumors. In words: Survival in GW-39 intrapulmonary micrometastasis model in nude mice. Particulars: for increase of median survival time: FIG. 18, single agent versus untreated.
The test system of test [4] is TT (human medullary thyroid) tumor cells. It counts as in vivo. Particulars: DTIC 75 μg/dose days 2, 3, 4, hMN-14 100 μg/dose from day 2; for mice with no palpable tumor at 7 weeks: 10 mice/group.
Test [5] addresses T1, normal cross reactive antigen, NCA (Homo sapiens, UniProt P40199).
T1 sequence (P40199 35-320): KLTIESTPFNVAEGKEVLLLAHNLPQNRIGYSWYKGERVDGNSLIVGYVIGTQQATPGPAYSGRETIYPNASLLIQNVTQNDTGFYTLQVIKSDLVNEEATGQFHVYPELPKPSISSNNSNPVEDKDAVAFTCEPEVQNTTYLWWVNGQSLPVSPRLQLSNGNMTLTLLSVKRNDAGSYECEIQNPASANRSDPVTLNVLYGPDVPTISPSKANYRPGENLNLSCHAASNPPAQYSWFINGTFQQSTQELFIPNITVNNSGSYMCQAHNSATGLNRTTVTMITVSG
Particulars: Hansen et al., Cancer 71:3478 (1993); cited from earlier work.

Test [6] deals with meconium antigen. Particulars: Hansen et al., Cancer 71:3478 (1993); cited from earlier work.
Test [7] relates to TT cells. Kind of test: Flow cytometry reactivity with TT cells. Background: Flow cytometry measures light scatter and fluorescence of single cells or particles in a stream.
The target in test [8] is T2, CEA (Homo sapiens, UniProt P06731).
T2 sequence (P06731 35-676): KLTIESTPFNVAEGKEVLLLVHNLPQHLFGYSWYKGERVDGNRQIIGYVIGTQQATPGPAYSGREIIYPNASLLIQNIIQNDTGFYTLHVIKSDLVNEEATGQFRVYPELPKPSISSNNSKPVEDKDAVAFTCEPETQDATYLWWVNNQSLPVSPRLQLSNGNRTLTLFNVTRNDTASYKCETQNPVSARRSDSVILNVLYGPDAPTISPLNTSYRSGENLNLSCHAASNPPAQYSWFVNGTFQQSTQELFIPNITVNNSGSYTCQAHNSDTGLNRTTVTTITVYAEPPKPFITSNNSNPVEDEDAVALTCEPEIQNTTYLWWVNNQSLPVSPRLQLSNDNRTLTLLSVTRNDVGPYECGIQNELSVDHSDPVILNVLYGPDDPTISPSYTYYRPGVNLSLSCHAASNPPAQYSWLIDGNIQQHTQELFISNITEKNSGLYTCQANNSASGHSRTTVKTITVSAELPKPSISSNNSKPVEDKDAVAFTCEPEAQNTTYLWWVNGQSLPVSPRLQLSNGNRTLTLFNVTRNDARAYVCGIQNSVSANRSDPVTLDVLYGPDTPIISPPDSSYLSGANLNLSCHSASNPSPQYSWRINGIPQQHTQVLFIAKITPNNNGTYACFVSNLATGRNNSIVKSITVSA
To be noted: Hansen et al., Cancer 71:3478 (1993); cited from earlier work.

Where [9] appears, read: FIG. 16 advanced colon cancer model, single agents.

As to `CC[C@]1(O)C[C@H]2CN(CCc3c([nH]c4ccccc34)[C@@](C(=O)OC)(c3cc4c(cc3OC)N(C=O)[C@H]3[C@@](O)(C(=O)OC)[C@H](OC(C)=O)[C@]5(CC)C=CCN6CC[C@]43[C@@H]65)C2)C1` [vincristine], in test [1], the “growth inhibition of TT xenografts, drug given individually” value (“growth inhibition of TT xenografts” for short) is on record as “not”.

As to `O=P1(N(CCCl)CCCl)NCCCO1` (stereo not shown) [cyclophosphamide], in test [1], the “growth inhibition of TT xenografts” value is “significant growth inhibition” and the Mean survival time is given as 8 weeks. Moreover, in test [1] (individual drugs), the “Log rank analysis of survival versus the untreated group” value was “significant difference”.

For “hLL2: negative control humanized MAb, anti-CD22 [reference compound]”, in test [2], the “tumors less than 0.5 cm^3” value is recorded as 29%.

Regarding `CCc1c2c(nc3ccc(OC(=O)N4CCC(N5CCCCC5)CC4)cc13)-c1cc3c(c(=O)n1C2)COC(=O)[C@]3(O)CC` [CPT-11, irinotecan], the median survival time in test [3] (10% GW-39 cell suspension, treatment from day 0, CPT-11 10% MTD (80 μg/d x 5 days), hMN14 100 μg/d, untreated 56 days) stood at 63 days; in test [3] (FIG. 17 reduced tumor burden model, 5% tumor cell suspension, dosages of Example 14), 70 days. Moreover, the median survival came to 63 days in test [3] (FIG. 16 advanced colon cancer model, hMN-14 100 μg/day from day 0, CPT-11 60 μg/day over 5 days); 63 days in test [3] (pretreatment study, CPT-11 on day 0, alone or co-treatment with hMN-14, untreated 35 days); 70 days in test [3] (pretreatment study, CPT-11 on day 3, alone or after 3-day pretreatment with hMN-14, untreated 35 days). In test [3] (setting [9]), the effect on survival result is on record as “only a modest effect”. For the same molecule, in test [3] (5% tumor cell suspension), the “increase of median survival time” value was determined as 76%.

On to `CN(C)/N=N/c1[nH]cnc1C(N)=O` [DTIC, dacarbazine, reference compound], for which, in test [1], the Mean survival time is listed as 11 weeks. Besides, in test [4], the “Mean tumor volumes at 7 weeks” value was determined as 0.284 ± 0.197 cm^3 and the “mice with no palpable tumor at 7 weeks” value is on record as 1/10.

As for `COc1cccc2c1C(=O)c1c(O)c3c(c(O)c1C2=O)C[C@@](O)(C(=O)CO)C[C@@H]3O[C@H]1C[C@H](N)[C@H](O)[C@H](C)O1` [doxorubicin], the “growth inhibition of TT xenografts” value in test [1] was “significant growth inhibition”.

Regarding “hMN-14: humanized (CDR-grafted) Class III anti-CEA monoclonal antibody MN-14, naked”, in test [3] (setting [9]), the effect on survival entry is “No effect”. Besides, the effect on survival entry in test [3] (FIG. 17 reduced tumor burden model, 5% tumor cell suspension) is reported as “no apparent effect”. In addition, the “increase of median survival time” value in test [3] (5% tumor cell suspension) came to 21%. For the same molecule, in test [3] (FIG. 21), the “efficacy on high (interferon-gamma induced) versus low CEA-expressing tumor cells” value is “improved efficacy”. Also, in test [4], the “Mean tumor volumes at 7 weeks” value is 0.899±0.545 cm^3 and the “mice with no palpable tumor at 7 weeks” value is recorded as 0/10. Further, the “delay / inhibition of tumor growth” value in test [4] (nude mice) is “Significant delays in tumor growth; also recorded: significant effect on inhibiting tumor growth”. For the same molecule, the “mean tumor sizes versus untreated animals” value in test [2] (0.5 mg single i.v. injection eleven days post tumor cell injection) is “no significant differences”. The “tumor growth versus untreated group” value in test [2] (0.5 mg single i.v. injection on day-1 post tumor injection) was “significant growth delay”. Further, the “inhibition of tumor size compared to the untreated animals” value in test [2] (0.5 mg single i.v. injection one day post tumor cell injection, between day-32 and day-60) was 64-70%. For the same molecule, the “tumors less than 0.5 cm^3” value in test [2] turned out to be 87%.

B1: murine MN-14: murine Class III anti-CEA MAb, reacting with CEA, unreactive with NCA and meconium antigen (antibody, listed as Mus sp., V domains shown)
VH: EVKLLESGGGLVQSGGSLKLSCAASGFDFTTYWMSWVRQAPGKGLEWIGEIHPDSSTINYAPSLKDKFIVSRDNAKNTLYLQMSKVRSEDTALYYCASLYFGFPWFAYWGQGTPVTVSA
VL: EIQLTQSHKMMSTSVGDRVSITCKASQDVGTSVAWYQQRPGQSPKLLIYWTSTRHTGVPDRFTGSVSGTDFTLTITNVQSEDLADYFCQQYSLYRSFGGGTKLEIK
modifications: constant regions
Regarding B1, in test [5], the “reactivity with NCA” value was “unreactive”. The “reactivity with meconium antigen” value in test [6] is reported as “unreactive”. Besides, the “reactivity with TT cells by flow cytometry” value in test [7] is on record as “react with TT cells”. Moreover, the “reactivity with CEA” value in test [8] was “reacting with CEA”.

Source of the values: patent publication US8778342B2, “Antibody therapy” (Immunomedics, Inc., priority 2002, dated 2014).
